# Where two headings read alike, the source gives them in different places.
# Legend:
# Plasma stability = type: in vitro ADME, mouse; settings: fresh mouse plasma, 5 µM; for half-life at 5 µM: pooled mouse plasma, duplicates
# Method: Incubations of test compound (5 µM initial concentration, n = 2) were carried out with pooled mouse plasma or BSA (45 mg/mL in 0.1 M phosphate buffered saline). The incubations were performed at 37°C. Samples (50 µL) were obtained from the incubation at 0, 10, 30, 120, 240, 360 and 1440 min, and added to 150 µL of acetonitrile containing carbamazepine as analytical internal standard to terminate the reaction. Samples were centrifuged and the supernatant fractions analysed by LC-MS/MS.
# For half-life determinations, the instrument responses (peak areas) normalized for internal standard response, were referenced to the zero time-point samples (as 100%) in order to determine the percentage of compound remaining. Ln plots of the % remaining, for each compound, were used to determine the half-life for the plasma incubations. Half-life values were calculated from the relationship:-. [drawing 1] Where λ was the slope of the natural logarithmic (Ln) concentration vs time curve.
# When quantification was required, calibration standards for parent compound and metabolites were prepared in control plasma and extracted and analysed as described for the study samples. Quantification of parent compound or metabolite was by extrapolation from the calibration line.
# H3 (h) = target: T1, H3 (h) (Homo sapiens, UniProt Q9Y5N1); assay: Cerep binding, agonist radioligand; settings: read-out: % inhibition of control specific binding
# T1 construct: purchased Cerep (Diversity Profile)
# Excerpt: (§1) In addition to the HDAC profiling performed, we also queried 4b for any apparent potential off-target effects, which could complicate any finding of efficacy or adverse events in vivo due to ‘polypharmacy’. This was accomplished by screening against a ‘diversity panel’ of 72 binding and 29 enzyme assays, comprised of roughly equal numbers of selective central and peripheral therapeutically relevant targets (Cerep Diversity Profile). This panel included representative targets from diverse enzyme families, G protein coupled receptors, steroid nuclear receptors, voltage- and ligand-gated ion channels. While not totally inclusive, it is a useful tool for discovery compounds to assess their viability as proof of concept molecules to specifically query a particular target. 4b was initially screened at 10 µM in duplicate. The full set of results is provided as Table S1. […] This clean in vitro profile was considered acceptable to proceed to ADME and pharmacokinetic studies.
# CCK2 (CCKB) (h) = target: T2, CCK2 (CCKB) (h) (Homo sapiens, UniProt P32239); assay: Cerep binding, agonist radioligand; settings: read-out: % inhibition of control specific binding
# T2 construct: purchased Cerep (Diversity Profile)
# Excerpt: as §1
# CysLT1 (LTD4) (h) = target: T3, CysLT1 (LTD4) (h) (Homo sapiens, UniProt Q9Y271); assay: Cerep binding, agonist radioligand; settings: read-out: % inhibition of control specific binding
# T3 construct: purchased Cerep (Diversity Profile)
# Excerpt: as §1
# PPAR (h) = target: T4, PPAR (h) (Homo sapiens, UniProt P37231); assay: Cerep binding, agonist radioligand; settings: read-out: % inhibition of control specific binding
# T4 construct: purchased Cerep (Diversity Profile)
# Excerpt: as §1
# 2 (h) = target: T5, 2 (h) (Homo sapiens, UniProt P07550); assay: Cerep binding, agonist radioligand; settings: read-out: % inhibition of control specific binding
# T5 construct: purchased Cerep (Diversity Profile)
# Excerpt: as §1
# EP2 (h) = target: T6, EP2 (h) (Homo sapiens, UniProt P43116); assay: Cerep binding, agonist radioligand; settings: read-out: % inhibition of control specific binding
# T6 construct: purchased Cerep (Diversity Profile)
# Excerpt: as §1
# CB2 (h) = target: T7, CB2 (h) (Homo sapiens, UniProt P34972); assay: Cerep binding, agonist radioligand; settings: read-out: % inhibition of control specific binding
# T7 construct: purchased Cerep (Diversity Profile)
# Excerpt: as §1
# GABA (non‐selective) = assay: Cerep binding, agonist radioligand; settings: 10 μM
# Excerpt: as §1
# A3 (h) = target: T8, A3 (h) (Homo sapiens, UniProt P0DMS8); assay: Cerep binding, agonist radioligand; settings: read-out: % inhibition of control specific binding
# T8 construct: purchased Cerep (Diversity Profile)
# Excerpt: as §1
# NK1 (h) = target: T9, NK1 (h) (Homo sapiens, UniProt P25103); assay: Cerep binding, agonist radioligand; settings: read-out: % inhibition of control specific binding
# T9 construct: purchased Cerep (Diversity Profile)
# Excerpt: as §1
# V1a (h) = target: T10, V1a (h) (Homo sapiens, UniProt P37288); assay: Cerep binding, agonist radioligand; settings: read-out: % inhibition of control specific binding
# T10 construct: purchased Cerep (Diversity Profile)
# Excerpt: as §1
# BLT1 (LTB4) (h) = target: T11, BLT1 (LTB4) (h) (Homo sapiens, UniProt Q15722); assay: Cerep binding, agonist radioligand; settings: read-out: % inhibition of control specific binding
# T11 construct: purchased Cerep (Diversity Profile)
# Excerpt: as §1
# NK2 (h) = target: T12, NK2 (h) (Homo sapiens, UniProt P21452); assay: Cerep binding, agonist radioligand; settings: read-out: % inhibition of control specific binding
# T12 construct: purchased Cerep (Diversity Profile)
# Excerpt: as §1
# CB1 (h) = target: T13, CB1 (h) (Homo sapiens, UniProt P21554); assay: Cerep binding, agonist radioligand; settings: read-out: % inhibition of control specific binding
# T13 construct: purchased Cerep (Diversity Profile)
# Excerpt: as §1
# V2 (h) = target: T14, V2 (h) (Homo sapiens, UniProt P30518); assay: Cerep binding, agonist radioligand; settings: read-out: % inhibition of control specific binding
# T14 construct: purchased Cerep (Diversity Profile)
# Excerpt: as §1
# AT2 (h) = target: T15, AT2 (h) (Homo sapiens, UniProt P50052); assay: Cerep binding, agonist radioligand; settings: read-out: % inhibition of control specific binding
# T15 construct: purchased Cerep (Diversity Profile)
# Excerpt: as §1
# A2A (h) = target: T16, A2A (h) (Homo sapiens, UniProt P29274); assay: Cerep binding, agonist radioligand; settings: read-out: % inhibition of control specific binding
# T16 construct: purchased Cerep (Diversity Profile)
# Excerpt: as §1
# ER (non‐selective) (h) = assay: Cerep binding, agonist radioligand; parameters: species or system human; settings: 10 μM
# Excerpt: as §1
# [1] = Hepatic microsomal stability; type: in vitro ADME, mouse; settings: for predicted in vivo plasma clearance: from mouse microsomal half-life; for half-life at 1 µM: pooled hepatic microsomes, pH 7.4, mouse
# Method: Incubations of test compounds (1 µM initial concentration, n = 2) were carried out with pooled hepatic microsomes (0.25 mg protein/mL in 0.1 M phosphate buffer pH 7.4). NADPH (1 mM) was added to initiate the reactions. The incubations were performed at 37°C. Samples (100 µL) were taken from the incubation at 0, 5, 10, 20 and 40 min and added to 100 µL of acetonitrile containing carbamazepine as analytical internal standard, to terminate the reaction. Samples were centrifuged and the supernatant fractions analysed by LC-MS/MS. The instrument responses (i.e. chromatographic peak heights), normalized by internal standard response were referenced to the zero time-point samples (as 100%) in order to determine the percentage of compound remaining.
# Ln plots of the % remaining, for each compound, were used to determine the half-life for the microsomal incubations.
# Half-life values were calculated from the relationship. [drawing 2] where λ was the slope of the Ln concentration vs time curve.
# The in vitro intrinsic clearance, CLint (µL/min/mg microsomal protein), was calculated using the following formula: [drawing 3]
# When quantification was required, calibration standards for parent compound and metabolites were prepared in control hepatic microsomes and extracted and analysed as described for the study samples. Quantification of parent compound or metabolite was by extrapolation from the calibration line.
# [2] = test system: endogenous Class I HDACs/HDAC6; assay: Cellular HDAC assay, Boc_Lys_Ac substrate, Jurkat E6.1 cells; type: cell-based
# Method: Briefly, Jurkat E6.1 cells (obtained from the European Collection of Cell Cultures (ECACC)) were plated into 384 well plates at 75,000 cells/well in cellular assay buffer (RPMI without phenol red, 0.1% Fetal Bovine Serum, 10 mM HEPES, 1 mM Sodium Pyruvate). […] Fluorescent counts were read the following morning on the Perkin Elmer EnVision.
# Each compound was tested in duplicate in concentration-response format on 3 separate days. […] A full dose response of reference compound was always included alongside the profiling, to ensure that assay parameters remained within acceptable limits.
# [3] = mouse, 1 µM, with NADPH, read-out: in vitro half-life in hepatic microsomes
# T14 sequence (P30518 whole entry): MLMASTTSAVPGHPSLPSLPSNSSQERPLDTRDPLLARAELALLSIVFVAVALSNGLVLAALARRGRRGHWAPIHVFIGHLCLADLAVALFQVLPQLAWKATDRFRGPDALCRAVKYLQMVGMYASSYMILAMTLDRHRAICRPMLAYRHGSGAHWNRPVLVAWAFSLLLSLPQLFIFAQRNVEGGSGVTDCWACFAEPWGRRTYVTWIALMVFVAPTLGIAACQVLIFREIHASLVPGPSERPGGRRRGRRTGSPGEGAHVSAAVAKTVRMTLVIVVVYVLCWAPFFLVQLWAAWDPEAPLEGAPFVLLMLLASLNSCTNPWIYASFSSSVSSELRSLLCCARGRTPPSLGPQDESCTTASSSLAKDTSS
# T4 sequence (P37231 whole entry): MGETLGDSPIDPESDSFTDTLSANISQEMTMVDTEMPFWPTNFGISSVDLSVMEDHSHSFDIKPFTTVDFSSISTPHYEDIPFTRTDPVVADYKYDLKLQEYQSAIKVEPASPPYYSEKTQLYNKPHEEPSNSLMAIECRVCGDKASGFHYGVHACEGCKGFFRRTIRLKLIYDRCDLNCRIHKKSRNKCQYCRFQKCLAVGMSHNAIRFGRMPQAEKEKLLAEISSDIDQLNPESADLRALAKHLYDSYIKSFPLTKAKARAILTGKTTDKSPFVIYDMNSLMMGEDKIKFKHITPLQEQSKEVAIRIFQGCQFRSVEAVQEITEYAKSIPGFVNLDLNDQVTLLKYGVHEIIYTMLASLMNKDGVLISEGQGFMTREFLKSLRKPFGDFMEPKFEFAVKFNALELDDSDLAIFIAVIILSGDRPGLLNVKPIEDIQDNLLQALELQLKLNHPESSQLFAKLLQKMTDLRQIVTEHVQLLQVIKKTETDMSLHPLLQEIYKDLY
# T10 sequence (P37288 whole entry): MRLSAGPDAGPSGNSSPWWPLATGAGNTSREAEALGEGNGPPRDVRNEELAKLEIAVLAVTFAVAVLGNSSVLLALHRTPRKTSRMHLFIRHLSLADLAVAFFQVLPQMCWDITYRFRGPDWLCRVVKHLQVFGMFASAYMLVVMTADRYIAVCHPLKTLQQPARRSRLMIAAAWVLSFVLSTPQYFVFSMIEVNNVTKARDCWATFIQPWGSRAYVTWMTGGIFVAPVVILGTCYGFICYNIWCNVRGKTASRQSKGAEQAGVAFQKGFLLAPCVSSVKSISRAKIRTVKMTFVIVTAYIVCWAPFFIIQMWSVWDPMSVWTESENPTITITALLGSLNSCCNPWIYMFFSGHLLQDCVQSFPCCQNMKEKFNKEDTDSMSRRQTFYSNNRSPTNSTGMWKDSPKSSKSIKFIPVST
# T12 sequence (P21452 whole entry): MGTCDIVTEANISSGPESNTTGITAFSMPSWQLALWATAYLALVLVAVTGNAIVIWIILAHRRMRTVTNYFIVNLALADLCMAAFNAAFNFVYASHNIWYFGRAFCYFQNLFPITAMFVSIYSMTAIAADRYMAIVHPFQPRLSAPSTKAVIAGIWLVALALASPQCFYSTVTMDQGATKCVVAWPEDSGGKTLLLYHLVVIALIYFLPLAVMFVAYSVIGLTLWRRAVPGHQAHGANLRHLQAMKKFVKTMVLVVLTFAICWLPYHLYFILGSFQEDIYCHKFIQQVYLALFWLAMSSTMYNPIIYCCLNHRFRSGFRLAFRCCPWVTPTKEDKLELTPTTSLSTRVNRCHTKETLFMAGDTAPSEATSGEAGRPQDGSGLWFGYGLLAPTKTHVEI
# T8 sequence (P0DMS8 whole entry): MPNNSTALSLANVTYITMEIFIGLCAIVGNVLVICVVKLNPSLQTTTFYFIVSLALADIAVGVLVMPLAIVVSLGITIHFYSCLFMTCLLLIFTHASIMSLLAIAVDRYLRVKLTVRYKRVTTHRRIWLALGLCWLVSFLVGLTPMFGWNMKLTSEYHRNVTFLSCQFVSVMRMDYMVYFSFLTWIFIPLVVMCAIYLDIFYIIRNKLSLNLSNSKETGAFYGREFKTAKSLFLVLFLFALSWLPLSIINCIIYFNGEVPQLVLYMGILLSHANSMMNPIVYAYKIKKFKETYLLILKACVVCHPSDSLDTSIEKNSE
# T9 sequence (P25103 whole entry): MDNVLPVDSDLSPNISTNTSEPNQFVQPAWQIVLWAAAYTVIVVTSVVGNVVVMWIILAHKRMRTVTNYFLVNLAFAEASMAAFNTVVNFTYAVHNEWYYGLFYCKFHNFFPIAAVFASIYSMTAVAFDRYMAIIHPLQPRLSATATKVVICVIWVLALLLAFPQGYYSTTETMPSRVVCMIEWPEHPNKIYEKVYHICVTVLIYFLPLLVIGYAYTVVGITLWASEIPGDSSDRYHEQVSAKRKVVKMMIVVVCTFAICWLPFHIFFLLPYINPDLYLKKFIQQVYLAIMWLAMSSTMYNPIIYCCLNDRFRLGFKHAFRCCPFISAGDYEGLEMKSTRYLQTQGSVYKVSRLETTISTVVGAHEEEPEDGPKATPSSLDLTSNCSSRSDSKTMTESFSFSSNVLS
# T3 sequence (Q9Y271 whole entry): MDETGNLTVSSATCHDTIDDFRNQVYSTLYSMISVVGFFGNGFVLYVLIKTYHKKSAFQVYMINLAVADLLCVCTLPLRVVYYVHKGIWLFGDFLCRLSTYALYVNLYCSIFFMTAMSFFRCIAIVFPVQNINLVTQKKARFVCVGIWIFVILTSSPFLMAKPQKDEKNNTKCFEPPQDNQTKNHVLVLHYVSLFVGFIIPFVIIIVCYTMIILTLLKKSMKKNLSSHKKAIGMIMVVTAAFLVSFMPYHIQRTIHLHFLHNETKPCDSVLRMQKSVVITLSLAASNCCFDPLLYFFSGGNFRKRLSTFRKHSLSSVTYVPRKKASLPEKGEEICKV
# T1 sequence (Q9Y5N1 whole entry): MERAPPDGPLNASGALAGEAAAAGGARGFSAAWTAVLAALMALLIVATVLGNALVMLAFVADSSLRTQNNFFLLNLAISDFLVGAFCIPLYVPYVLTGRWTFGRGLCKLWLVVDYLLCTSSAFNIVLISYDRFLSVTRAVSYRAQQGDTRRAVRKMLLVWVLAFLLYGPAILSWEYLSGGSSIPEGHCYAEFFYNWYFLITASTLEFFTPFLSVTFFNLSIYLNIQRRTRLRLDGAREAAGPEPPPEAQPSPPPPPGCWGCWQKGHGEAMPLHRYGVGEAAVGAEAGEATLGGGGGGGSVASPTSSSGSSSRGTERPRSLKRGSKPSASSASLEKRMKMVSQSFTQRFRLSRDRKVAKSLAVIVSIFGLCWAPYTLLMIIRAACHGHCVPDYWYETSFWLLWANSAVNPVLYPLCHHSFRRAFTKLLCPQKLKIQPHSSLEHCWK
# T5 sequence (P07550 whole entry): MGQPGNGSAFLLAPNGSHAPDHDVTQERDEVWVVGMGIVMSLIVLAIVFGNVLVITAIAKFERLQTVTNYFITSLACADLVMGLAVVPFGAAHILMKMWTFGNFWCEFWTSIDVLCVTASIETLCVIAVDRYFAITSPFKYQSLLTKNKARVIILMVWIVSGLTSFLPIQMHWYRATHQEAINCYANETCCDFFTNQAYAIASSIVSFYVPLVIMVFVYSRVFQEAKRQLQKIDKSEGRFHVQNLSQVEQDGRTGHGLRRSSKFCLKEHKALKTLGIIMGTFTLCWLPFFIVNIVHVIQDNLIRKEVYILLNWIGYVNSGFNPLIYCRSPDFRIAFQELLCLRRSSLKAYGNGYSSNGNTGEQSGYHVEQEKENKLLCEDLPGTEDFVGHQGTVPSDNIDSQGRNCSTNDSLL
# T15 sequence (P50052 whole entry): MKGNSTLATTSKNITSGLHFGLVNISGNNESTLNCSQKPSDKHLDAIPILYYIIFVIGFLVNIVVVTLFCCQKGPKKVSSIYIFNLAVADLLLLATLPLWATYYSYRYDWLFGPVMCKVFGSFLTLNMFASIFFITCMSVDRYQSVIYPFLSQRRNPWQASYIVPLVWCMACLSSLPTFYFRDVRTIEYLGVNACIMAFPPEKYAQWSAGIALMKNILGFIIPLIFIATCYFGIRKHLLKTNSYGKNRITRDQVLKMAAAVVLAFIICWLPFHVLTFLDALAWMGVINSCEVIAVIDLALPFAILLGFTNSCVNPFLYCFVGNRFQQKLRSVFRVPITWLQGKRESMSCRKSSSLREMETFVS
# T16 sequence (P29274 whole entry): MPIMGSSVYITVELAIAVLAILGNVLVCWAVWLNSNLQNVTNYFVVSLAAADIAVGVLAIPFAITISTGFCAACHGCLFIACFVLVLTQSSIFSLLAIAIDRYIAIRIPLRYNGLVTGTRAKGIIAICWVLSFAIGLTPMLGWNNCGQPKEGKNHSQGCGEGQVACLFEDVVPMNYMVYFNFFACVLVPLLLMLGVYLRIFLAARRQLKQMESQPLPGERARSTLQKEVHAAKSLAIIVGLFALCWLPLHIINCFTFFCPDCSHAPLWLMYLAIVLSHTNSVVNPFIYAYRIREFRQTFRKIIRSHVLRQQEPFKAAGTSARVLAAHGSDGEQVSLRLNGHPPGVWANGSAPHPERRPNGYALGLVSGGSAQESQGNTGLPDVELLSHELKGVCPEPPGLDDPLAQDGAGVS
# T2 sequence (P32239 whole entry): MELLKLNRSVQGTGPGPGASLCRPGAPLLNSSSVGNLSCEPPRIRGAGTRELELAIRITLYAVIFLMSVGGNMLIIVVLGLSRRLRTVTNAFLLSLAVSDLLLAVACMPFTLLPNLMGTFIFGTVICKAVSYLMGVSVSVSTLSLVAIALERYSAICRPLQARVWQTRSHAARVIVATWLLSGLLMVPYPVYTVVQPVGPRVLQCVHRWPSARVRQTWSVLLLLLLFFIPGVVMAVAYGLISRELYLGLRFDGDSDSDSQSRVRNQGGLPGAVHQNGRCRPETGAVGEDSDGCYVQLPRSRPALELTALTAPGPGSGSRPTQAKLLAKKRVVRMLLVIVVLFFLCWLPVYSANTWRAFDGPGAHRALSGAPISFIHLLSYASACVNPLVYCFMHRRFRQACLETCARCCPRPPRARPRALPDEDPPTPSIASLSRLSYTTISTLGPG
compound,measurement,setting,value
Nc1ccccc1NC(=O)CCCCCC(=O)Nc1ccccc1 [Compound 4b],time to complete conversion to amide hydrolysis products (M1 and M2),Plasma stability,≤ 6 h
same,half-life at 5 µM,Plasma stability,114 min
same,inhibition at 10 µM,H3 (h),0%
same,inhibition at 10 µM,CCK2 (CCKB) (h),0%
same,inhibition at 10 µM,CysLT1 (LTD4) (h),0%
same,inhibition at 10 µM,PPAR (h),13%
same,inhibition at 10 µM,2 (h),2%
same,inhibition at 10 µM,EP2 (h),15%
same,inhibition at 10 µM,CB2 (h),0%
same,% inhibition of control specific binding,GABA (non‐selective),14%
same,inhibition at 10 µM,A3 (h),8%
same,inhibition at 10 µM,NK1 (h),7%
same,inhibition at 10 µM,V1a (h),10%
same,inhibition at 10 µM,BLT1 (LTB4) (h),2%
same,inhibition at 10 µM,NK2 (h),5%
same,inhibition at 10 µM,CB1 (h),7%
same,inhibition at 10 µM,V2 (h),6%
same,inhibition at 10 µM,AT2 (h),4%
same,inhibition at 10 µM,A2A (h),0%
same,% inhibition of control specific binding,ER (non‐selective) (h),2%
same,parent remaining,[1]; after 40 min incubation with mouse hepatic microsomes,16%
same,predicted in vivo plasma clearance,[1],2.6 L/h/kg
same,predicted clearance as share of liver plasma flow,[1]; mouse,approximately 87%
same,half-life at 1 µM,[1]; [3],~20 min
same,IC50,"[2]; 24 h pre-incubation with cells (maximal), read-out: cellular IC50, Boc_Lys_Ac substrate ('Class I' HDAC inhibition)",1.8 µM
same,IC50,"[2]; Jurkat E6.1, standard protocol, total incubation time 5 h, read-out: cellular IC50, Boc_Lys_Ac substrate (Class I inhibition)",5.3 µM
same,IC50,"[2]; dilution prepared 21 h previously in DMSO or aqueous buffer, no pre-incubation with cells, read-out: cellular IC50, Boc_Lys_Ac substrate",15 µM
same,IC50,"[2]; freshly prepared compound dilution, no pre-incubation with cells, read-out: cellular IC50, Boc_Lys_Ac substrate",16 µM
same,IC50,"[2]; no pre-incubation with cells, read-out: cellular IC50, Boc_Lys_Ac substrate",16 µM
"O=C(CCCCCc1nc2ccccc2[nH]1)Nc1ccccc1 [Compound C1, 6-(1-H-benzo[d]imidazol-2-yl)-N-phenylhexanamide]",half-life at 5 µM,Plasma stability,216 min
same,inhibition at 10 µM,H3 (h); 10 μM,8%
same,inhibition at 10 µM,CCK2 (CCKB) (h); 10 μM,3%
same,inhibition at 10 µM,CysLT1 (LTD4) (h); 10 μM,0%
same,inhibition at 10 µM,PPAR (h); 10 μM,13%
same,inhibition at 10 µM,2 (h); 10 μM,2%
same,inhibition at 10 µM,EP2 (h); 10 μM,24%
same,inhibition at 10 µM,CB2 (h); 10 μM,3%
same,% inhibition of control specific binding,GABA (non‐selective),5%
same,inhibition at 10 µM,A3 (h); 10 μM,11%
same,inhibition at 10 µM,NK1 (h); 10 μM,9%
same,inhibition at 10 µM,V1a (h); 10 μM,11%
same,inhibition at 10 µM,BLT1 (LTB4) (h); 10 μM,0%
same,inhibition at 10 µM,NK2 (h); 10 μM,9%
same,inhibition at 10 µM,CB1 (h); 10 μM,18%
same,inhibition at 10 µM,V2 (h); 10 μM,5%
same,inhibition at 10 µM,AT2 (h); 10 μM,12%
same,inhibition at 10 µM,A2A (h); 10 μM,9%
same,% inhibition of control specific binding,ER (non‐selective) (h),4%
same,concentration of C1 in incubations with 4b,"[1]; all incubations with 4b, below the limit of quantification",< 0.1 µM
same,predicted in vivo plasma clearance,[1],> 2.89 L/h/kg
same,half-life at 1 µM,[1]; [3],< 5 min
same,half-life at 1 µM,"[1]; mouse, without NADPH, read-out: in vitro half-life in liver microsomes",7 min
same,activity in the Class I cellular HDAC (Boc_Lys_Ac) assay,"[2]; up to 50 µM, 5 h incubation",no activity

# From paper PMC3433414, “Oral Administration of the Pimelic Diphenylamide HDAC Inhibitor HDACi 4b Is Unsuitable for Chronic Inhibition of HDAC Activity in the CNS In Vivo” (PLoS ONE, 2012)
